Results: US20210340572A1, “HIGH-CONTENT IMAGING OF MICROFLUIDIC DEVICES” (EMULATE, Inc., priority 2019, published 2021)

Experiments:
[1] = tested on: microfluidic devices seeded with human liver cells; test: Cytokine release (IL-6, MCP-1, IP-10) from the vascular channel of human chips; format: cell-based; conditions: for release of cytokines/chemokines including IP-10: treated chips; for IL-6 release / MCP-1 release: 14 days
Experimental: Cytokines: Release of IL-6, MCP-1, and IP-10 from the vascular channel was quantified using U-PLEX biomarker human assays (Meso Scale Diagnostics, Rockville, Md., USA) and the assays were performed according to the protocol provided by the vendor.

[2] = tested on: microfluidic devices seeded with rat liver cells; test: Lipid accumulation (Nile red) in rat chips; format: cell-based; conditions: rat chips, 1, 10, 30 μM, 10 days
Description: Microfluidic devices seeded with liver cells were stained in the upper channel with 5(6)-Carboxy-2′,7′-dichlorofluorescein diacetate (CDFDA) (ThermoFisher) to visualize bile canaliculi and MRP2 activity, cholyl-lysyl-fluorescein (CLF) (Corning) to visualize bile canaliculi and BSEP activity, Nile red (ThermoFisher) or AdipoRed (Lonza) to visualize lipid droplet accumulation, Tetramethylrhodamine, methyl ester (TMRM) (ThermoFisher) to visualize active mitochondria, and CellROX® (ThermoFisher) to visualize cellular oxidative stress. Each staining solution was prepared in blank medium or compound dosing medium and added to the upper channel, incubated for 15 minutes at 37° C., and washed three times with medium. […] Using ImageJ-Fiji, the fluorescent channel images were histogram adjusted to remove background, followed by fluorescence quantification using the Integrated Density calculation function.
(§1) The stained microfluidic devices were imaged using the TRITC filter, and were de-blurred with Olympus cellSens software. Using ImageJ-Fiji, the fluorescent channel images were histogram adjusted to remove background, followed by fluorescence quantification using the Integrated Density calculation function. N=5 FOVs per microfluidic device were analyzed for conditions: vehicle (0.1% DMSO), FIAU dosing groups, and MTX dosing groups.

[3] = cited from earlier work
[4] = tested on: microfluidic devices seeded with human liver cells; test: Lipid accumulation (Nile red / AdipoRed) in human chips; format: cell-based
Description: (§2) Microfluidic devices seeded with liver cells were stained in the upper channel with 5(6)-Carboxy-2′,7′-dichlorofluorescein diacetate (CDFDA) (ThermoFisher) to visualize bile canaliculi and MRP2 activity, cholyl-lysyl-fluorescein (CLF) (Corning) to visualize bile canaliculi and BSEP activity, Nile red (ThermoFisher) or AdipoRed (Lonza) to visualize lipid droplet accumulation, Tetramethylrhodamine, methyl ester (TMRM) (ThermoFisher) to visualize active mitochondria, and CellROX® (ThermoFisher) to visualize cellular oxidative stress. Each staining solution was prepared in blank medium or compound dosing medium and added to the upper channel, incubated for 15 minutes at 37° C., and washed three times with medium. The stained microfluidic devices were imaged using a specific filter, and were de-blurred with Olympus cellSens software. Using ImageJ-Fiji, the fluorescent channel images were histogram adjusted to remove background, followed by fluorescence quantification using the Integrated Density calculation function.
as §1

[5] = tested on: microfluidic devices seeded with rat liver cells; test: Albumin secretion / hepatocyte function, microfluidic devices seeded with rat liver cells; format: cell-based; conditions: rat quadruple-cell chips, 1, 10, 30 μM
Description: Prior to cell seeding, microfluidic devices, in this case S-1 Chips (Emulate, Inc. Boston, Mass., USA), were functionalized using Emulate's proprietary protocols and reagents (ERT™), including those described herein. After surface functionalization, both channels of the microfluidic device were coated with species-specific extracellular matrices (ECM). For the human bound microfluidic device, a mixture of collagen type I (Corning, Corning, N.Y., USA) and fibronectin, e.g. bovine, (Gibco) was used; for the rat bound microfluidic devices a mixture of collagen type IV, e.g. human placenta, (Sigma-Aldrich, St. Louis, Mo., USA) and fibronectin (Gibco) was used; for the dog bound microfluidic devices a mixture of collagen I (Corning), collagen type IV (Sigma-Aldrich), and fibronectin (Gibco) was used. […] For the dual-cell culture model (hepatocytes and endothelial cells), the LSECs were seeded at a concentration of 2-4 million cells/mL in the lower vascular channel. […] Albumin secretion from the upper channel was quantified using ELISA kits for human, rat, and dog models effluent samples (human and rat: Abcam; dog: Immunology Consultants Laboratory, Inc., Portland, Oreg., USA) and the assays were performed according to the protocol provided by each vendor.

[6] = tested on: microfluidic devices seeded with human liver cells; test: DILI biomarker release (alpha-GST, miR-122, keratin 18) from human chips; format: cell-based
Description: Exemplary Biomarker, e.g. DILI: Keratin 18 levels were quantified in human model effluent samples from both the hepatocyte and vascular channels using the M65 EpiDeath CK18 ELISA Kit (DiaPharma, Detroit, Mich., USA). The assay was run following the vendor protocol using a standard curve ranging from 0-5,000 U/L. Additionally, a standard curve ranging from 0-500 U/L was generated independently for quality control.
Exemplary Biomarker, e.g. DILI: Alpha Glutathione S-Transferase (α-GST) levels were quantified in human model effluent samples from the upper channel using an ELISA kit (DiaPharma). The assay was run following the vendor protocol using a standard curve ranging from 0-64 μg/L. Additionally, a standard curve ranging from 0-50 μg/L was generated independently for quality control.
Exemplary Biomarker, e.g. DILI: Mir-122: Isolation of micro-RNAs was performed on upper and lower chamber eluates using Qiagen's (Hilden, Germany) miRNA isolation kit for serum and plasma. A total volume of 50 μL was used for isolation. Isolation was performed according to manufacturer's protocol using a 56.5 pM oligonucleotide spike-in control. Samples were eluted with 14 μL RNase-free water. Reverse transcription was performed using Thermo Fisher Scientific's TaqMan™ MicroRNA Reverse Transcription Kit according to the manufacturer's protocol. A total reaction volume of 15 μL was used. Real-time PCR was performed using Thermo Fisher Scientific's TaqMan™ Micro-RNA Assays according to manufacturer's protocol. A total reaction volume of 10 μl was used. Normalized rrCt was used for fold-change analysis.

[7] = tested on: microfluidic devices seeded with human liver cells; test: Albumin secretion, microfluidic devices seeded with human liver cells; format: cell-based
Description: Prior to cell seeding, microfluidic devices, in this case S-1 Chips (Emulate, Inc. Boston, Mass., USA), were functionalized using Emulate's proprietary protocols and reagents (ERT™), including those described herein. After surface functionalization, both channels of the microfluidic device were coated with species-specific extracellular matrices (ECM). For the human bound microfluidic device, a mixture of collagen type I (Corning, Corning, N.Y., USA) and fibronectin, e.g. bovine, (Gibco) was used; for the rat bound microfluidic devices a mixture of collagen type IV, e.g. human placenta, (Sigma-Aldrich, St. Louis, Mo., USA) and fibronectin (Gibco) was used; for the dog bound microfluidic devices a mixture of collagen I (Corning), collagen type IV (Sigma-Aldrich), and fibronectin (Gibco) was used. […] For the dual-cell culture model (hepatocytes and endothelial cells), the LSECs were seeded at a concentration of 2-4 million cells/mL in the lower vascular channel. […] After cell seeding, the upper channel of the microfluidic device was maintained in William's E Medium (WEM) containing Glutamax (Gibco), ITS+(Corning), dexamethasone (Sigma-Aldrich), ascorbic acid (Sigma-Aldrich), fetal bovine serum (FBS) (Sigma-Aldrich), and Penicillin/Streptomycin (Sigma-Aldrich). The vascular channel of the microfluidic device was maintained with species-specific endothelial media (Emulate, Inc.). Two days after seeding, the microfluidic devices were connected to the Human Emulation System™ (Emulate, Inc.), as described in part herein, and both of the microfluidic device channels were perfused at 30 μL/hr to provide a continuous supply of fresh media for the duration of the experiments. Albumin secretion from the upper channel was quantified using ELISA kits for human, rat, and dog models effluent samples (human and rat: Abcam; dog: Immunology Consultants Laboratory, Inc., Portland, Oreg., USA) and the assays were performed according to the protocol provided by each vendor.

[8] = tested on: stellate cells; test: Stellate cell activation (alpha-SMA) in human chips; format: cell-based
Experimental: Microfluidic devices seeded with liver cells and static sandwich plate cultures were fixed with 4% paraformaldehyde for 15 minutes at room temperature, washed with PBS, and permeabilized (saponin 1% with 10% serum in PBS). Blocking and incubation with the primary antibodies (overnight in PBS containing 1% BSA or PBS containing 10% serum and 1% BSA) was followed by a two-hour incubation with secondary antibodies (Cell Signaling, Danvers, Mass., USA) in the same blocking buffer. Immunostaining was performed with specific primary antibodies (anti-MRP2, anti-stabilin-1, anti-BSEP, anti-α-SMA, anti-CD68; Abcam, Cambridge, Mass., USA) and images were acquired with either an Olympus fluorescence microscope (IX83) or Zeiss confocal microscope (AxiovertZ1 LSM880).
The number of CD68- or α-SMA-positive cells in the vascular channel in each group was counted in each field of view ([…]) and quantified.
The fluorescent channel (588) was first background subtracted and processed using the median filter of Image J. After processing, the signal was thresholded using adaptive thresholding function of Image J (Otsu method) to extract fluorescent regions and to measure the relative intensity of the fluorescent signal. N=4 to 6 FOVs per microfluidic device from each microfluidic device were analyzed. […]

[9] = tested on: hepatocytes in microfluidic devices seeded with human liver cells; test: Hepatocyte morphology (bright-field) in human chips; format: cell-based; conditions: quadruple-cell human chips, daily administration 7 days
[10] = biological target: T1, MRP2 (Homo sapiens, UniProt Q92887); test: Biliary efflux of MRP2 substrate CDFDA in human chips; format: cell-based; conditions: TAK-875 3, 10, 30 μM, up to 15 days
T1 construct: Primary rat, dog or human hepatocytes were cultured in the upper parenchymal channel; endogenous in cells; host or cells: primary human hepatocytes in a microfluidic Liver-Chip
T1 sequence (Q92887 whole entry): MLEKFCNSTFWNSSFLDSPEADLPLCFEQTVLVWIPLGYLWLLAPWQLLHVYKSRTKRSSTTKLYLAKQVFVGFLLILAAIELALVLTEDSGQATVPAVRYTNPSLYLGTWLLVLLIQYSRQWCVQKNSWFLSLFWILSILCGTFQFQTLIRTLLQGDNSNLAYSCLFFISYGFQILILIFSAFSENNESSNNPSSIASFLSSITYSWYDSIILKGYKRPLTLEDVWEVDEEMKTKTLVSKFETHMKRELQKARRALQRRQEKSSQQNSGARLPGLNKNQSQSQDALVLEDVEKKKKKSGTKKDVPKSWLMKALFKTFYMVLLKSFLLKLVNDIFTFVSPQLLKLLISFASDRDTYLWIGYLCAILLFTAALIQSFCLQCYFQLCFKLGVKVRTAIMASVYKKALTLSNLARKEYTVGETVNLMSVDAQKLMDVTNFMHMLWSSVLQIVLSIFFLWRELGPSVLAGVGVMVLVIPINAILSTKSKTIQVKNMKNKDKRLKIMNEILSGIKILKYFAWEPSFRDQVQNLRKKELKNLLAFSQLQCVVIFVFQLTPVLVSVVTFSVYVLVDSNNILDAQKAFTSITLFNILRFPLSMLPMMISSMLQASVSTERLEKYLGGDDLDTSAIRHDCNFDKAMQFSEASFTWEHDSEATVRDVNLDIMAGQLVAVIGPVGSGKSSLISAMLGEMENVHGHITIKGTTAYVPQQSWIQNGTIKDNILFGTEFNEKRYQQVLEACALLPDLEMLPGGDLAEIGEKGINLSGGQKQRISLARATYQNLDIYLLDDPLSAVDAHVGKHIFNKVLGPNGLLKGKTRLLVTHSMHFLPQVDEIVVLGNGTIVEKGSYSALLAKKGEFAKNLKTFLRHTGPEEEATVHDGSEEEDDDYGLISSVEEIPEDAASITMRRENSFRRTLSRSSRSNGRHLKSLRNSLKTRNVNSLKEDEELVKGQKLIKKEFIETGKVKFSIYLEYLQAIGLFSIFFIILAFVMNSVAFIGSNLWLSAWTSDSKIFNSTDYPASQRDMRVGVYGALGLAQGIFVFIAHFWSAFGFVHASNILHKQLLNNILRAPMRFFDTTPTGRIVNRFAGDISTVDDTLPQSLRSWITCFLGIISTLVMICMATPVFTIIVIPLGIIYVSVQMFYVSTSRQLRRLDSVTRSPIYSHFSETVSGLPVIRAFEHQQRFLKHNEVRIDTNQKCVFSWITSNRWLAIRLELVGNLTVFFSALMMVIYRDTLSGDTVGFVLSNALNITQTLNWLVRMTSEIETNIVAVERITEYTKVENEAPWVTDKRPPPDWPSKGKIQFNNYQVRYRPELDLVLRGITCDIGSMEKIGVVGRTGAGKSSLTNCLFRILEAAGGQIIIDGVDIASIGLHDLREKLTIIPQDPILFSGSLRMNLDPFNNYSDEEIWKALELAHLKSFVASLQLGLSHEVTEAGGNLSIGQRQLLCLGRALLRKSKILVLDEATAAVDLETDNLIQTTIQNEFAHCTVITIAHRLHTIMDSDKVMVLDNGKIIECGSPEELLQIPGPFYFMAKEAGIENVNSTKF

[11] = tested on: microfluidic devices seeded with human liver cells; test: ROS levels (CellROX) in human chips; format: cell-based; conditions: TAK-875, up to 15 days
[12] = tested on: microfluidic devices seeded with human liver cells; test: Mitochondrial membrane potential (TMRM) in human chips; format: cell-based; conditions: TAK-875 3, 10, 30 μM, 8 or 15 days
Description: as §2

## O=c1[nH]c(=O)n([C@@H]2O[C@H](CO)[C@@H](O)[C@@H]2F)cc1I [FIAU, fialuridine]
[1]
  release of cytokines/chemokines including IP-10: observed
[2]
  lipid accumulation: no effects
[3]; Phase II clinical trials
  patients with liver failure and death: 5/15
[4]; daily 1, 10, 30 μM for 10 days, human chips
  lipid accumulation (Nile red): dose-dependent increase
[5]
  hepatocyte function: no effects
[6]; FIAU 1, 10, 30 μM, 10 days
  keratin 18 (K-18) (liver injury marker): release
  miR122 (liver injury marker): release
  α-GST (liver injury marker): release
[7]; quadruple-cell human chips, daily FIAU 1, 10, 30 μM
  concentrations with dose-dependent decline in albumin secretion: ≥ 1000 nM

## CN(Cc1cnc2nc(N)nc(N)c2n1)c1ccc(C(=O)N[C@@H](CCC(=O)O)C(=O)O)cc1 [MTX, Methotrexate]
[8]; daily 1, 10, 30 μM for 7 days
  stellate cell activation, expression of α-SMA: increased expression
[1]; MTX 1, 10, 30 μM, vascular channel, 1 day (FIG. 8C)
  IP-10: increases
[1]
  release of cytokines/chemokines including IP-10: observed
[3]; some patient populations
  maximal plasma concentration at which liver injury occurs in humans: ~1 µM
[4]; daily 1, 10, 30 μM for 7 days
  lipid accumulation (Nile red): microscopic evidence of lipid accumulation
[7]; quadruple-cell human chips, 7 days
  albumin synthesis / secretion: no abnormalities
[9]
  hepatocyte morphology: no abnormalities

## Cc1cc(OCCCS(C)(=O)=O)cc(C)c1-c1cccc(COc2ccc3c(c2)OC[C@H]3CC(=O)O)c1 [TAK-875]
[8]; 10 or 30 uM for 15 days, human Liver-Chips
  % aSMA positive area from the vascular channel: Not significant
[10]
  biliary efflux of the MRP2 substrate CDFDA: dose-dependent decrease
[1]; 10 μM
  IL-6 release: significant release
  MCP-1 release: significant release
[1]; 30 μM (highest dose)
  IL-6 release: not observed
  MCP-1 release: not observed
[3]; Phase III trials
  incidence of treatment-related elevations in transaminases (>3-fold rise in upper limit of normal): 2.7%
[4]; end of the 2-week treatment
  lipid droplet accumulation (AdipoRed): detected
[11]
  formation of ROS: increase
[6]; 30 μM, 14 days
  release of K18: increased release
[6]; accompanying mitochondrial perturbations, human chips
  markers of hepatocyte function or necrosis (albumin and K18): minimal changes
[12]
  mitochondrial membrane potential, TMRM distribution: dose-related and time-dependent redistribution
[7]; 30 μM, 14 days, human chips
  albumin production: decreased
